# Bridge positions count the residues as written; N and C are the ends. Square brackets hold non-standard residues; d marks the D form. Peptide text beside a SMILES is read from it. * marks the point of attachment. Ileψ(thiazoline)Cys = CC[C@H](C)[C@H](N)C1=N[C@H](C(=O)*)CS1; dOrn = NCCC[C@@H](N)C(=O)O
# Test system: Cystobacter velatus MCy8071
# Assay: Antibiotic resistance of the producer strain
# Assay type: cell-based
# Details: final concentration of all antibiotics 50 μg ml^−1
# Method: MCy8071 is resistant against the following antibiotics: ampicillin, gentamycin, hygromycin, polymycin, bacitracin, spectinomycin, neomycin, and fusidinic acid. Weak growth is possible with cephalosporin and kasugamycin and no growth is possible with thiostrepton, trimethoprin, kanamycin, and oxytetracycline (final concentration of all antibiotics was adjusted to 50 μg ml^−1).
row,Compound,growth of strain MCy8071 in presence of the antibiotic
1,polymycin,resistant
2,C=C(NC(=O)C(=C)NC(=O)c1csc(C2=N[C@@H]3c4csc(n4)[C@H]4NC(=O)c5csc(n5)[C@H]([C@](C)(O)[C@@H](C)O)NC(=O)[C@H]5CSC(=N5)/C(=C/C)NC(=O)[C@H]([C@@H](C)O)NC(=O)c5csc(n5)[C@]3(CC2)NC(=O)[C@H](C)NC(=O)C(=C)NC(=O)[C@H](C)NC(=O)[C@H]([C@@H](C)CC)N[C@@H]2C=Cc3c([C@H](C)O)cc(nc3[C@H]2O)C(=O)O[C@@H]4C)n1)C(N)=O [thiostrepton],no growth
3,gentamycin,resistant
4,CC(=O)O[C@H]1C[C@@]2(C)[C@@H](C[C@@H](O)[C@H]3[C@@]4(C)CC[C@@H](O)[C@@H](C)[C@@H]4CC[C@@]32C)/C1=C(\CCC=C(C)C)C(=O)O [fusidinic acid],resistant
5,CC1(C)S[C@@H]2[C@H](NC(=O)[C@H](N)c3ccccc3)C(=O)N2[C@H]1C(=O)O [ampicillin],resistant
6,COc1cc(Cc2cnc(N)nc2N)cc(OC)c1OC [trimethoprin],no growth
7,C[C@H]1O[C@H](O[C@H]2[C@H](O)[C@@H](O)[C@@H](O)[C@H](O)[C@@H]2O)[C@@H](N)C[C@@H]1NC(=N)C(=O)O [kasugamycin],Weak growth
8,neomycin,resistant
9,CN[C@@H]1[C@H](O)[C@H](NC)[C@H]2O[C@@]3(O)C(=O)C[C@@H](C)O[C@H]3O[C@@H]2[C@H]1O [spectinomycin],resistant
10,CC[C@H](C)[C@H](N)C1=N[C@H](C(=O)N[C@@H](CC(C)C)C(=O)N[C@H](CCC(=O)O)C(=O)N[C@H](C(=O)N[C@H]2CCCCNC(=O)[C@H](CC(N)=O)NC(=O)[C@@H](CC(=O)O)NC(=O)[C@H](Cc3cnc[nH]3)NC(=O)[C@@H](Cc3ccccc3)NC(=O)[C@H]([C@@H](C)CC)NC(=O)[C@@H](CCCN)NC2=O)[C@@H](C)CC)CS1 [bacitracin] ({Ileψ(thiazoline)Cys}-L[dE]IK[dOrn]I[dF]H[dD]N; lactam 4-C),resistant

# From US11225503B2, “Crystobactamides” (HELMHOLTZ-ZENTRUM FÜR INFEKTIONSFORSCHUNG GMBH, priority 2013, dated 2022)
